The text below walks through data of the supplement of paper PMC4862054.

In the first assay the test system is CAL-51. Kind of assay: normalised response (% of control), CellTiter-Glo; higher = more viable cells (100 = DMSO, 0 = benzethonium chloride kill control). The note with it: incubation time: 72 h. The procedure:
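DSRT, 72 h incubation, CellTox Green / CellTiter-Glo readout. Signal is normalised to DMSO and benzethonium chloride controls. Value is the normalised response at the highest dose.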
Background: Cellular ATP, detected with luciferase, serves as a proxy for viable cell number.
`COc1ccc(S(=O)(=O)Nc2cccnc2Nc2ccc(O)cc2)cc1` [ABT-751] (10000 nM) showed a normalised response of 25.2%.

As for `Cc1cc(Nc2nc(N[C@@H](C)c3ncc(F)cn3)ncc2Cl)[nH]n1` [AZD1480] (1000 nM), the normalised response amounted to 110%.

In turn, `CNC(=O)c1ccccc1Sc1ccc2c(/C=C/c3ccccn3)n[nH]c2c1` [Axitinib] (10000 nM) had a normalised response of 38.6%.

The compound `CC(O)(CS(=O)(=O)c1ccc(F)cc1)C(=O)Nc1ccc(C#N)c(C(F)(F)F)c1` (stereo unspecified) [Bicalutamide] (10000 nM) displayed a normalised response of 92.8%.

The compound `CCNC(=O)CCC/C=C\C[C@@H]1[C@@H](/C=C/[C@@H](O)CCc2ccccc2)[C@H](O)C[C@@H]1O` [Bimatoprost] (5500 nM) yielded a normalised response of 160%.

`COc1cc(Nc2c(C#N)cnc3cc(OCCCN4CCN(C)CC4)c(OC)cc23)c(Cl)cc1Cl` [Bosutinib] (10000 nM) displayed a normalised response of 25%.

Regarding `Cn1cc(C2=C(c3cn(C4CCN(Cc5ccccn5)CC4)c4ccccc34)C(=O)NC2=O)c2ccccc21` [Enzastaurin] (10000 nM), the normalised response was 82.1%.

The compound `CC(C)(C)NC(=O)[C@H]1CC[C@H]2[C@@H]3CC[C@H]4NC(=O)C=C[C@]4(C)[C@H]3CC[C@]12C` [Finasteride] (10000 nM) registered a normalised response of 91.7%.

Regarding `Nc1ccn([C@@H]2O[C@H](CO)[C@@H](O)C2(F)F)c(=O)n1` [Gemcitabine] (1000 nM), the normalised response came to 34%.

Consider `CC(C)C[C@H](NC(=O)[C@@H](COC(C)(C)C)NC(=O)[C@H](Cc1ccc(O)cc1)NC(=O)[C@H](CO)NC(=O)[C@H](Cc1c[nH]c2ccccc12)NC(=O)[C@H](Cc1cnc[nH]1)NC(=O)[C@@H]1CCC(=O)N1)C(=O)N[C@@H](CCCNC(=N)N)C(=O)N1CCC[C@H]1C(=O)NNC(N)=O` [Goserelin] (10000 nM), for which the normalised response was found to be 113%.

On to `CC(=O)[C@]1(O)Cc2c(O)c3c(c(O)c2[C@@H](O[C@H]2C[C@H](N)[C@H](O)[C@H](C)O2)C1)C(=O)c1ccccc1C3=O` [Idarubicin] (1000 nM), for which the normalised response came to 0.98%.

For the compound `C/C(=C\c1csc(C)n1)[C@@H]1C[C@@H]2O[C@]2(C)CCC[C@H](C)[C@H](O)[C@@H](C)C(=O)C(C)(C)[C@@H](O)CC(=O)N1` [Ixabepilone] (1000 nM), the normalised response was found to be 23.7%.

As for `C=CCn1c(=O)c2cnc(Nc3ccc(N4CCN(C)CC4)cc3)nc2n1-c1cccc(C(C)(C)O)n1` [MK1775] (10000 nM), the normalised response was determined as 8.21%.

In turn, `CO[C@@H]1[C@H](N(C)C(=O)c2ccccc2)C[C@H]2O[C@]1(C)n1c3ccccc3c3c4c(c5c6ccccc6n2c5c31)C(=O)NC4` [Midostaurin] (10000 nM) showed a normalised response of 11.5%.

With `CO[C@@]12[C@H](COC(N)=O)C3=C(C(=O)C(C)=C(N)C3=O)N1C[C@@H]1N[C@@H]12` [Mitomycin C] (10000 nM), the normalised response is 5.75%.

Consider `CCNC(=O)c1noc(-c2cc(C(C)C)c(O)cc2O)c1-c1ccc(CN2CCOCC2)cc1` [NVP-AUY922] (1000 nM), for which the normalised response came to 13.5%.

`CC1(C)CCC(c2ccc(Cl)cc2)=C(CN2CCN(c3ccc(C(=O)NS(=O)(=O)c4ccc(N[C@H](CCN5CCOCC5)CSc5ccccc5)c(S(=O)(=O)C(F)(F)F)c4)cc3)CC2)C1` [Navitoclax] (10000 nM) displayed a normalised response of 74.5%.

On to `Cc1cn(-c2cc(NC(=O)c3ccc(C)c(Nc4nccc(-c5cccnc5)n4)c3)cc(C(F)(F)F)c2)cn1` [Nilotinib] (10000 nM), for which the normalised response amounted to 86.3%.

`O=C(CCCCCCC(=O)Nc1ccccc1)NO` [Vorinostat] (10000 nM): the normalised response amounted to 22.8%.

For the next assay, the system named is CAL-148. Kind of assay: drug sensitivity score (DSS), CellTiter-Glo (DSS (AUC-based score)); higher = stronger drug effect (viability inhibition or cytotoxicity); extreme values may be limits of the assay. The conditions noted are these: incubation time: 72 h. A digest of the protocol: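 Breast cancer cell lines were seeded in 20 µl suspension into 384-well plates already holding compound and incubated for 72 h. Each compound was tested at 5 concentrations in 10-fold steps across its own 10,000-fold range. Plates were normalised to 0.1 % DMSO and a positive kill control after CellTox Green and then CellTiter-Glo readings. The area under the fitted dose-response curve served as the basis for the drug sensitivity score.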
In turn, `CCn1c(C(=O)N(C2CC2)C2CC2)cc2c3c(ncn3C)c(Nc3cc(C)n(C)n3)nc21` had a drug sensitivity score of 0.

Take `COc1ccc(S(=O)(=O)Nc2cccnc2Nc2ccc(O)cc2)cc1` [ABT-751]: the drug sensitivity score worked out at 3.29.

As for `CN[C@@H](C)C(=O)N[C@H]1CN(C(=O)CC(C)C)CC[C@H]2CC[C@@H](C(=O)NC(c3ccccc3)c3ccccc3)N2C1=O` [AT-406], the drug sensitivity score was found to be 0.

For `Cc1cc(Nc2nc(N[C@@H](C)c3ncc(F)cn3)ncc2Cl)[nH]n1` [AZD1480], the drug sensitivity score was 0.

`CNC(=O)c1ccccc1Sc1ccc2c(/C=C/c3ccccn3)n[nH]c2c1` [Axitinib] returned a drug sensitivity score of 0.

`CC(O)(CS(=O)(=O)c1ccc(F)cc1)C(=O)Nc1ccc(C#N)c(C(F)(F)F)c1` (stereo unspecified) [Bicalutamide] registered a drug sensitivity score of 0.

In turn, `CCNC(=O)CCC/C=C\C[C@@H]1[C@@H](/C=C/[C@@H](O)CCc2ccccc2)[C@H](O)C[C@@H]1O` [Bimatoprost] showed a drug sensitivity score of 0.

For the compound `COc1cc(Nc2c(C#N)cnc3cc(OCCCN4CCN(C)CC4)c(OC)cc23)c(Cl)cc1Cl` [Bosutinib], the drug sensitivity score amounted to 1.7.

As to `CCN(CC)CCCC(C)Nc1ccnc2cc(Cl)ccc12` (stereo unspecified) [Chloroquine], the drug sensitivity score turned out to be 10.1.

`CC1(COc2ccc3c(c2)ncn3-c2ccc3cccc(N4CCC(N)CC4)c3n2)COC1` [Crenolanib] showed a drug sensitivity score of 4.01.

In turn, `CC(C)(C)c1nc(-c2cccc(NS(=O)(=O)c3c(F)cccc3F)c2F)c(-c2ccnc(N)n2)s1` [Dabrafenib] showed a drug sensitivity score of 0.

In the case of `Cn1cc(C2=C(c3cn(C4CCN(Cc5ccccn5)CC4)c4ccccc34)C(=O)NC2=O)c2ccccc21` [Enzastaurin], the drug sensitivity score came out at 0.

The compound `Cc1nc(C(=O)NCC(=O)O)c(O)c2ccc(Oc3ccccc3)cc12` [FG-4592] displayed a drug sensitivity score of 0.

For the compound `CC(C)(C)NC(=O)[C@H]1CC[C@H]2[C@@H]3CC[C@H]4NC(=O)C=C[C@]4(C)[C@H]3CC[C@]12C` [Finasteride], the drug sensitivity score stood at 0.

`Nc1ccn([C@@H]2O[C@H](CO)[C@@H](O)C2(F)F)c(=O)n1` [Gemcitabine] came in with a drug sensitivity score of 10.6.

As to `CC(C)C[C@H](NC(=O)[C@@H](COC(C)(C)C)NC(=O)[C@H](Cc1ccc(O)cc1)NC(=O)[C@H](CO)NC(=O)[C@H](Cc1c[nH]c2ccccc12)NC(=O)[C@H](Cc1cnc[nH]1)NC(=O)[C@@H]1CCC(=O)N1)C(=O)N[C@@H](CCCNC(=N)N)C(=O)N1CCC[C@H]1C(=O)NNC(N)=O` [Goserelin], the drug sensitivity score was 0.

`O=C(O)CNC(=O)c1c(O)c2ccccc2n(Cc2ccccc2)c1=O` [IOX-2] returned a drug sensitivity score of 0.

`CC(=O)[C@]1(O)Cc2c(O)c3c(c(O)c2[C@@H](O[C@H]2C[C@H](N)[C@H](O)[C@H](C)O2)C1)C(=O)c1ccccc1C3=O` [Idarubicin] yielded a drug sensitivity score of 10.5.

As for `C/C(=C\c1csc(C)n1)[C@@H]1C[C@@H]2O[C@]2(C)CCC[C@H](C)[C@H](O)[C@@H](C)C(=O)C(C)(C)[C@@H](O)CC(=O)N1` [Ixabepilone], the drug sensitivity score is 0.

In turn, `C=CCn1c(=O)c2cnc(Nc3ccc(N4CCN(C)CC4)cc3)nc2n1-c1cccc(C(C)(C)O)n1` [MK1775] came in with a drug sensitivity score of 19.3.

As to `CN(C)C(=N)NC(=N)N` [Metformin], the drug sensitivity score is 0.

The compound `CN(Cc1cnc2nc(N)nc(N)c2n1)c1ccc(C(=O)N[C@@H](CCC(=O)O)C(=O)O)cc1` [Methotrexate] showed a drug sensitivity score of 0.

Turning to `CO[C@@H]1[C@H](N(C)C(=O)c2ccccc2)C[C@H]2O[C@]1(C)n1c3ccccc3c3c4c(c5c6ccccc6n2c5c31)C(=O)NC4` [Midostaurin], the drug sensitivity score came out at 0.

In the case of `CO[C@@]12[C@H](COC(N)=O)C3=C(C(=O)C(C)=C(N)C3=O)N1C[C@@H]1N[C@@H]12` [Mitomycin C], the drug sensitivity score was 0.

Take `CCNC(=O)c1noc(-c2cc(C(C)C)c(O)cc2O)c1-c1ccc(CN2CCOCC2)cc1` [NVP-AUY922]: the drug sensitivity score turned out to be 12.5.

Consider `CC1(C)CCC(c2ccc(Cl)cc2)=C(CN2CCN(c3ccc(C(=O)NS(=O)(=O)c4ccc(N[C@H](CCN5CCOCC5)CSc5ccccc5)c(S(=O)(=O)C(F)(F)F)c4)cc3)CC2)C1` [Navitoclax], for which the drug sensitivity score turned out to be 2.

`Cc1cn(-c2cc(NC(=O)c3ccc(C)c(Nc4nccc(-c5cccnc5)n4)c3)cc(C(F)(F)F)c2)cn1` [Nilotinib] yielded a drug sensitivity score of 0.

The compound `CC[C@H](CO)Nc1nc(NCc2ccccc2)c2ncn(C(C)C)c2n1` [Seliciclib] yielded a drug sensitivity score of 0.

As for `C=CCN(/C=C1/C(=O)O[C@H](COC)[C@@]2(C)C1=C(O)C(=O)C1=C2[C@H](OC(C)=O)C[C@]2(C)C(=O)CC[C@@H]12)CC=C` [Sonolisib], the drug sensitivity score worked out at 0.

`O=[N+]([O-])c1ccc2c(c1)S(=O)(=O)C=C2` [Stattic] gave a drug sensitivity score of 11.9.

Compound `CC(C)n1cnc2c(NCCc3ccc(O)cc3)nc(-c3csc4ccccc34)nc21` [StemRegenin 1] yielded a drug sensitivity score of 0.

`O=C(CCCCCCC(=O)Nc1ccccc1)NO` [Vorinostat]: the drug sensitivity score came out at 5.5.
